The target of assay [1] is MAGL (Mus musculus (Mouse), UniProt O35678). Nature of the assay: In vitro competitive activity-based protein profiling, MAGL (mouse). The format is biochemical. Conditions: for inhibition at 1 µM: read-out: MAGL % inh. 1 μM (mouse). An outline of the steps: (§1)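 Competitive ABPP; proteome 1.0 mg/mL total protein; mouse = brain membranes or cell lysates, human = prefrontal cortex or cell membranes. Inhibitor preinc 30 min, 37° C; FP-Rh/HT-01 (50 μM DMSO stock) 30 min, 37° C; SDS-PAGE, in-gel fluorescence of MAGL/FAAH bands.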

Assay [2] has as its target FAAH (Mus musculus (Mouse), UniProt O08914). Nature of the assay: In vitro competitive activity-based protein profiling, FAAH (mouse). The format is biochemical. The conditions noted are these: for inhibition at 1 µM: read-out: FAAH % inh. 1 μM (mouse). An outline of the steps: as §1

Chain of FAAH (O08914 whole entry): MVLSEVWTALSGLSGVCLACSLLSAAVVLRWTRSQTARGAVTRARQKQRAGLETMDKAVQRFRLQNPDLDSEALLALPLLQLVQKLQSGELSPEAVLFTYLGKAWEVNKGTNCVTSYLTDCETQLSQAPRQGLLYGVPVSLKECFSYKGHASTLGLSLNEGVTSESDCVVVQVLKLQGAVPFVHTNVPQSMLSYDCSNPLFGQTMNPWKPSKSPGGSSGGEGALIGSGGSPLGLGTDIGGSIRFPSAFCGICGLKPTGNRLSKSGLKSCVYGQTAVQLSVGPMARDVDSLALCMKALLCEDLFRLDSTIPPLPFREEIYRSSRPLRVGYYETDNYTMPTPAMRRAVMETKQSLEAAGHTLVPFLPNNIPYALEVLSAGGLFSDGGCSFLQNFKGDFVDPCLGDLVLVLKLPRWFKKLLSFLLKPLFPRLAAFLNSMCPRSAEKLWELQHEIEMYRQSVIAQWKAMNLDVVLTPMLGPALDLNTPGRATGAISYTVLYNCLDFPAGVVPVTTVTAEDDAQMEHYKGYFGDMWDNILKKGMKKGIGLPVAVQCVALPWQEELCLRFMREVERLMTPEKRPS
Chain of MAGL (O35678 whole entry): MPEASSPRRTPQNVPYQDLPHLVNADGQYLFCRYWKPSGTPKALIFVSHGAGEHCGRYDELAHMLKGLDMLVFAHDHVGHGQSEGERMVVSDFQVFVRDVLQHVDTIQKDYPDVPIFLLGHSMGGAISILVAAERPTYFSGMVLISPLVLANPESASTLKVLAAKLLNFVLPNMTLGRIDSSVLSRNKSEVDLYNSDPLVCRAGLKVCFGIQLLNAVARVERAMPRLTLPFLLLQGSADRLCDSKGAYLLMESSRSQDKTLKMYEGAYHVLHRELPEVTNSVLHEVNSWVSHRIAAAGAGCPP

In the case of `CC(=O)N(C)c1cnn(C(=O)N2C[C@H]3C[C@H](N(C)Cc4cc(N5CCCC5)ccc4C(F)(F)F)C[C@H]3C2)c1` [Example 142, N-methyl-N-(1-(trans-5-(methyl(5-(pyrrolidin-1-yl)-2-(trifluoromethyl)benzyl)amino)octahydrocyclopenta[c]pyrrole-2-carbonyl)-1H-pyrazol-4-yl)acetamide], the inhibition at 1 µM in assay [1] and in assay [2] was not below 75% throughout.

As for `CC(=O)N(C)c1cnn(C(=O)N2C[C@H]3C[C@@H](N(C)Cc4ccc(Cl)cc4)C[C@H]3C2)c1` [Example 143, N-(1-(cis-5-((4-chlorobenzyl)(methyl)amino)octahydrocyclopenta[c]pyrrole-2-carbonyl)-1H-pyrazol-4-yl)-N-methylacetamide], in assay [1], the 50% inhibitory concentration (IC50) – broadly, the concentration at which inhibition is half-maximal – is 0.1 to 1 µM and the inhibition at 1 µM is not below 75%. Besides, in assay [2], the half-maximal inhibitory concentration (IC50) is 0.1 to 1 µM and the inhibition at 1 µM is not below 75%.

For `CC(=O)N(C)c1cnn(C(=O)N2C[C@H]3C[C@H](N(C)Cc4cc(C(F)(F)F)ccc4N4CCCC4)C[C@H]3C2)c1` [Example 144, N-methyl-N-(1-(trans-5-(methyl(2-(pyrrolidin-1-yl)-5-(trifluoromethyl)benzyl)amino)octahydrocyclopenta[c]pyrrole-2-carbonyl)-1H-pyrazol-4-yl)acetamide], the inhibition at 1 µM in assay [1] was not below 75%; in assay [2] it was 50 to 75%.

Regarding `CC(=O)N(C)c1cnn(C(=O)N2C[C@H]3C[C@H](N(C)Cc4ccccc4Cl)C[C@H]3C2)c1` [Example 145, N-(1-(trans-5-((2-chlorobenzyl)(methyl)amino)octahydrocyclopenta[c]pyrrole-2-carbonyl)-1H-pyrazol-4-yl)-N-methylacetamide], the IC50 in assay [1] and in assay [2] was not above 0.1 µM in each case. For the same molecule, the inhibition at 1 µM in assay [1] and in assay [2] was not below 75% in each case.

For `CC(=O)N(C)c1cnn(C(=O)N2C[C@H]3C[C@H](N(C)Cc4cc(C(F)(F)F)ccc4C(F)(F)F)C[C@H]3C2)c1` [Example 146, N-(1-(trans-5-((2,5-bis(trifluoromethyl)benzyl)(methyl)amino)octahydrocyclopenta[c]pyrrole-2-carbonyl)-1H-pyrazol-4-yl)-N-methylacetamide], the inhibition at 1 µM in assay [1] and in assay [2] was not below 75% in each case.

In the case of `CC(=O)N(C)c1cnn(C(=O)N2C[C@H]3C[C@H](N(C)Cc4cccc(Cl)c4)C[C@H]3C2)c1` [Example 147, N-(1-(trans-5-((3-chlorobenzyl)(methyl)amino)octahydrocyclopenta[c]pyrrole-2-carbonyl)-1H-pyrazol-4-yl)-N-methylacetamide], the half-maximal inhibitory concentration (IC50) in assay [1] and in assay [2] was not above 0.1 µM in each case. For the same molecule, the inhibition at 1 µM in assay [1] and in assay [2] was not below 75% throughout.

For `CC(=O)N(C)c1cnn(C(=O)N2C[C@H]3C[C@@H](N(C)Cc4ccc(N5C6CCC5COC6)cc4C(F)(F)F)C[C@H]3C2)c1` [Example 149, N-(1-(cis-5-((4-(3-oxa-8-azabicyclo[3.2.1]octan-8-yl)-2-(trifluoromethyl)benzyl)(methyl)amino)octahydrocyclopenta[c]pyrrole-2-carbonyl)-1H-pyrazol-4-yl)-N-methylacetamide], the inhibition at 1 µM in assay [1] and in assay [2] was not below 75% in each case.

For the molecule `CC(=O)N(C)c1cnn(C(=O)N2C[C@H]3C[C@@H](N(C)Cc4ccc(N5C6CCC5COC6)c(C(F)(F)F)c4)C[C@H]3C2)c1` [Example 150, N-(1-(cis-5-((4-(3-oxa-8-azabicyclo[3.2.1]octan-8-yl)-3-(trifluoromethyl)benzyl)(methyl)amino)octahydrocyclopenta[c]pyrrole-2-carbonyl)-1H-pyrazol-4-yl)-N-methylacetamide], in assay [1], the concentration for half-maximal inhibition (IC50) fell in the range of 0.1 to 1 µM and the inhibition at 1 µM was not below 75%. Moreover, in assay [2], the IC50 was not above 0.1 µM and the inhibition at 1 µM was not below 75%.

For the molecule `CC(=O)N(C)c1cnn(C(=O)N2C[C@H]3C[C@@H](N(C)Cc4cc(N5C6CCC5COC6)cc(C(F)(F)F)c4)C[C@H]3C2)c1` [Example 151, N-(1-(cis-5-((3-(3-oxa-8-azabicyclo[3.2.1]octan-8-yl)-5-(trifluoromethyl)benzyl)(methyl)amino)octahydrocyclopenta[c]pyrrole-2-carbonyl)-1H-pyrazol-4-yl)-N-methylacetamide], the IC50 in assay [1] and in assay [2] was 0.1 to 1 µM each time. Moreover, the inhibition at 1 µM in assay [1] and in assay [2] was not below 75% each time.

Turning to `CC(=O)N(C)c1cnn(C(=O)N2C[C@H]3C[C@@H](N(C)Cc4ccc(N5CCCC5)cc4C(F)(F)F)C[C@H]3C2)c1` [Example 152, N-methyl-N-(1-(cis-5-(methyl(4-(pyrrolidin-1-yl)-2-(trifluoromethyl)benzyl)amino)octahydrocyclopenta[c]pyrrole-2-carbonyl)-1H-pyrazol-4-yl)acetamide], the inhibition at 1 µM in assay [1] and in assay [2] was not below 75% throughout.

Regarding `CC(=O)N(C)c1cnn(C(=O)N2C[C@H]3C[C@@H](N(C)Cc4ccc(N5CCCC5)c(C(F)(F)F)c4)C[C@H]3C2)c1` [Example 153, N-methyl-N-(1-(cis-5-(methyl(4-(pyrrolidin-1-yl)-3-(trifluoromethyl)benzyl)amino)octahydrocyclopenta[c]pyrrole-2-carbonyl)-1H-pyrazol-4-yl)acetamide], the inhibition at 1 µM in assay [1] and in assay [2] was not below 75% throughout.

As for `CC(=O)N(C)c1cnn(C(=O)N2C[C@H]3C[C@@H](N(C)Cc4cc(N5CCCC5)cc(C(F)(F)F)c4)C[C@H]3C2)c1` [Example 154, N-methyl-N-(1-(cis-5-(methyl(3-(pyrrolidin-1-yl)-5-(trifluoromethyl)benzyl)amino)octahydrocyclopenta[c]pyrrole-2-carbonyl)-1H-pyrazol-4-yl)acetamide], the inhibition at 1 µM in assay [1] and in assay [2] was not below 75% in each case.

Take `CC(=O)N(C)c1cnn(C(=O)N2C[C@H]3C[C@H](N(C)Cc4ccc(N5C6CCC5COC6)cc4C(F)(F)F)C[C@H]3C2)c1` [Example 155, N-(1-(trans-5-((4-(3-oxa-8-azabicyclo[3.2.1]octan-8-yl)-2-(trifluoromethyl)benzyl)(methyl)amino)octahydrocyclopenta[c]pyrrole-2-carbonyl)-1H-pyrazol-4-yl)-N-methylacetamide]: the inhibition at 1 µM in assay [1] and in assay [2] was not below 75% each time.

Regarding `CC(=O)N(C)c1cnn(C(=O)N2C[C@H]3C[C@H](N(C)Cc4ccc(N5C6CCC5COC6)c(C(F)(F)F)c4)C[C@H]3C2)c1` [Example 156, N-(1-(trans-5-((4-(3-oxa-8-azabicyclo[3.2.1]octan-8-yl)-3-(trifluoromethyl)benzyl)(methyl)amino)octahydrocyclopenta[c]pyrrole-2-carbonyl)-1H-pyrazol-4-yl)-N-methylacetamide], in assay [1], the IC50 lay within 0.1 to 1 µM and the inhibition at 1 µM was not below 75%. Also, in assay [2], the IC50 is not above 0.1 µM and the inhibition at 1 µM is not below 75%.

With `CC(=O)N(C)c1cnn(C(=O)N2C[C@H]3C[C@H](N(C)Cc4cc(N5C6CCC5COC6)cc(C(F)(F)F)c4)C[C@H]3C2)c1` [Example 157, N-(1-(trans-5-((3-(3-oxa-8-azabicyclo[3.2.1]octan-8-yl)-5-(trifluoromethyl)benzyl)(methyl)amino)octahydrocyclopenta[c]pyrrole-2-carbonyl)-1H-pyrazol-4-yl)-N-methylacetamide], the inhibition at 1 µM in assay [1] and in assay [2] was not below 75% throughout.

With `CC(=O)N(C)c1cnn(C(=O)N2C[C@H]3C[C@H](N(C)Cc4ccc(N5CCCC5)cc4C(F)(F)F)C[C@H]3C2)c1` [Example 158, N-methyl-N-(1-(trans-5-(methyl(4-(pyrrolidin-1-yl)-2-(trifluoromethyl)benzyl)amino)octahydrocyclopenta[c]pyrrole-2-carbonyl)-1H-pyrazol-4-yl)acetamide], the inhibition at 1 µM in assay [1] and in assay [2] was not below 75% in each case.

In the case of `CC(=O)N(C)c1cnn(C(=O)N2C[C@H]3C[C@H](N(C)Cc4ccc(N5CCCC5)c(C(F)(F)F)c4)C[C@H]3C2)c1` [Example 159, N-methyl-N-(1-(trans-5-(methyl(4-(pyrrolidin-1-yl)-3-(trifluoromethyl)benzyl)amino)octahydrocyclopenta[c]pyrrole-2-carbonyl)-1H-pyrazol-4-yl)acetamide], the inhibition at 1 µM in assay [1] and in assay [2] was not below 75% throughout.

Regarding `CC(=O)N(C)c1cnn(C(=O)N2C[C@H]3C[C@H](N(C)Cc4cc(N5CCCC5)cc(C(F)(F)F)c4)C[C@H]3C2)c1` [Example 160, N-methyl-N-(1-(trans-5-(methyl(3-(pyrrolidin-1-yl)-5-(trifluoromethyl)benzyl)amino)octahydrocyclopenta[c]pyrrole-2-carbonyl)-1H-pyrazol-4-yl)acetamide], the inhibition at 1 µM in assay [1] and in assay [2] was not below 75% throughout.

`CC(=O)N(C)c1cnn(C(=O)N2C[C@H]3C[C@@H](N(C)Cc4cc(Cl)ccc4C(F)(F)F)C[C@H]3C2)c1` [Example 161, N-(1-(cis-5-((5-chloro-2-(trifluoromethyl)benzyl)(methyl)amino)octahydrocyclopenta[c]pyrrole-2-carbonyl)-1H-pyrazol-4-yl)-N-methylacetamide]: in assay [1], the IC50 was not above 0.1 µM and the inhibition at 1 µM is not below 75%. For the same molecule, in assay [2], the IC50 is not above 0.1 µM and the inhibition at 1 µM is not below 75%.

As for `CC(=O)N(C)c1cnn(C(=O)N2C[C@H]3C[C@@H](N(C)Cc4cc(Cl)ccc4Cl)C[C@H]3C2)c1` [Example 162, N-(1-(cis-5-((2,5-dichlorobenzyl)(methyl)amino)octahydrocyclopenta[c]pyrrole-2-carbonyl)-1H-pyrazol-4-yl)-N-methylacetamide], the inhibition at 1 µM in assay [1] and in assay [2] was not below 75% each time.

(Values after patent publication US10323038B2, “Pyrazole compounds and methods of making and using same” (ABIDE THERAPEUTICS, INC., priority 2015, dated 2019).)
